From patent publication US6521751B1, “Recombinant nucleic acid sequences and methods for determining both genotoxicity and mutagenicity of a sample and the kinetics of the genotoxicity” (Vlaamse Instelling voor Technologisch Onderzoek (VITO), priority 1998, dated 2003)
Where “and” joins values, the source holds several entries; their conditions need not be identical. Equal values may be shown once. Read-outs that look alike come from different tables or passages of the source.

Assays:
[1] = system: S. typhimurium TA104* containing pMOL890
[2] = system: S. typhimurium TA1535* containing pMOL890
[3] = system: S. typhimurium TA104 containing pMOL1069; conditions: TA104 pMOL1069
[4] = system: S. typhimurium TA1538
[5] = system: TA98 and TA104 containing pMOL1067; assay: Induction kinetics with pMOL1067; type: cell-based, S. typhimurium
Description: The reaction of the different constructs when more than one genotoxic product is present in the test sample. was examined. This is an important aspect, since environmental samples often contain more than one genotoxic pollutant. Also in this regard many pharmaceutical products that have to be tested for genotoxicity can be a combination of different active genotoxic substances (e.g. anticancer or anti AIDS drugs). The experiments were performed with TA98 and TA104 containing either pMOL1067 or pMOL890. These two constructs were chosen since they show similar induction kinetics and the best signal/noise ratio's in S. typhimurium (see FIG. 7 and FIG. 8). As test products, several combinations of MMS and novobiocine were taken. These products were used since they were found by us to have different induction kinetics (e.g., with pMOL1067 MMS gives a maximum after 2 hours, while the maximal signal/noise ratio with novobiocine is observed after 4 hours).

[6] = system: S. typhimurium TA1538* containing pMOL890
[7] = system: S. typhimurium TA100* containing pMOL890
[8] = system: S. typhimurium TA1535
[9] = system: S. typhimurium TA104
[10] = system: S. typhimurium TA98
[11] = system: TA 98 and TA104 strains containing pMOL1067 or pMOL1068; conditions: TA 98 and TA104 strains containing pMOL1067 or pMOL1068
[12] = system: S. typhimurium TA104 containing pMOL1066; conditions: TA104 pMOL1066
[13] = system: S. typhimurium TA104 containing pMOL1068; conditions: TA104 pMOL1068
[14] = system: S. typhimurium TA98 containing pMOL1068; conditions: TA98 pMOL1068
[15] = system: E. coli (sfiA-lacZ); conditions: cited from earlier work; for SOS (result) / MINIMAL DETECTED CONCENTRATION (MDC): SOS chromotest; for SOS (result): Table 3; for MINIMAL DETECTED CONCENTRATION (MDC): literature values
[16] = system: S. typhimurium TA104 containing pMOL890; conditions: TA104 pMOL890
[17] = system: S. typhimurium TA104 containing pMOL1067; conditions: TA104 pMOL1067
[18] = system: S. typhimurium TA98* containing pMOL890
[19] = system: S. typhimurium TA100
[20] = system: S. typhimurium TA98 containing pMOL1067; conditions: TA98 pMOL1067
[21] = system: S. typhimurium TA98 containing pMOL890; conditions: TA98 pMOL890
[22] = system: S. typhimurium; conditions: cited from earlier work
[23] = system: novel biosensor systems in E. coli and in S. typhimurium strains; assay: Subject SOS promoter-lux systems (general statements); conditions: agents known to give false negative results in the SOS chromotest and the Ames test
[24] = system: TA98 and TA104 strains containing pMOL890, pMOL1067 or pMOL1068; assay: Test with the TA98 and TA104 strains containing pMOL890, pMOL1067 or pMOL1068

COS(C)(=O)=O [MMS, Methylmethanesulphonate]
Number of His^+ revertants ([1]; MMS 0.1 μl): 224 and 218 | Number of His^+ revertants ([1]; MMS 0.2 μl): 428 and 325 | Number of His^+ revertants ([1]; MMS 1 μl): 672 and 724 | Number of His^+ revertants ([2]; MMS 0.1 μl): 32 | Number of His^+ revertants ([2]; MMS 0.2 μl): 24 | Number of His^+ revertants ([2]; MMS 1 μl): 29 and 26 | MINIMAL DETECTED CONCENTRATION (MDC) [3]: 7.3 nmol/assay | Conclusion (Ames test) [4]: − | time of maximal signal/noise ratio [5]: 2 h | Number of His^+ revertants ([6]; MMS 0.1 μl): 36 and 28 | Number of His^+ revertants ([6]; MMS 0.2 μl): 28 and 27 | Number of His^+ revertants ([6]; MMS 1 μl): 27 and 29 | Number of His^+ revertants ([7]; MMS 0.1 μl): 160 and 152 | Number of His^+ revertants ([7]; MMS 0.2 μl): 242 and 314 | Number of His^+ revertants ([7]; MMS 1 μl): 536 and 528 | Number of His^+ revertants ([8]; MMS 0.1 μl): 27 and 18 | Number of His^+ revertants ([8]; MMS 0.2 μl): 23 and 24 | Number of His^+ revertants ([8]; MMS 1 μl): 27 and 38 | Conclusion (Ames test) [9]: + | Conclusion (Ames test) [10]: − | OUTCOME (genotoxicity, final outcome) [11]: pos | MINIMAL DETECTED CONCENTRATION (MDC) [12]: 7.3 nmol/assay | MINIMAL DETECTED CONCENTRATION (MDC) [13]: 7.3 nmol/assay | MINIMAL DETECTED CONCENTRATION (MDC) [14]: 7.3 nmol/assay | SOS (result) [15]: pos | MINIMAL DETECTED CONCENTRATION (MDC) [15]: 20 nmol/assay | MINIMAL DETECTED CONCENTRATION (MDC) [16]: 7.3 nmol/assay | MINIMAL DETECTED CONCENTRATION (MDC) [17]: 7.3 nmol/assay | Number of His^+ revertants ([18]; MMS 0.1 μl): 25 and 27 | Number of His^+ revertants ([18]; MMS 0.2 μl): 26 and 28 | Number of His^+ revertants ([18]; MMS 1 μl): 22 and 27 | Number of His^+ revertants ([19]; MMS 0.1 μl): 344 and 392 | Number of His^+ revertants ([19]; MMS 0.2 μl): 604 and 560 | Number of His^+ revertants ([19]; MMS 1 μl): 1120 and 1282 | MINIMAL DETECTED CONCENTRATION (MDC) [20]: 7.3 nmol/assay | MINIMAL DETECTED CONCENTRATION (MDC) [21]: 7.3 nmol/assay | AMES (result) [22]: pos | MINIMAL DETECTED CONCENTRATION (MDC) [22]: 60 nmol/assay

CO[C@@H]1[C@@H](OC(N)=O)[C@@H](O)[C@H](Oc2ccc3c(O)c(NC(=O)c4ccc(O)c(CC=C(C)C)c4)c(=O)oc3c2C)OC1(C)C [novobiocine]
MINIMAL DETECTED CONCENTRATION (MDC) [3]: 0.32 nmol/assay | result in the novel systems according to the invention [23]: positive | time of maximal signal/noise ratio [5]: 4 h | result in the test (genotoxicity) [24]: positive | OUTCOME (genotoxicity, final outcome) [11]: pos | MINIMAL DETECTED CONCENTRATION (MDC) [12]: 1.26 nmol/assay | MINIMAL DETECTED CONCENTRATION (MDC) [13]: 1.26 nmol/assay | MINIMAL DETECTED CONCENTRATION (MDC) [14]: 0.63 nmol/assay | SOS (result) [15]: neg | MINIMAL DETECTED CONCENTRATION (MDC) [15]: neg | result in the SOS chromotest ([15]; text b126): negative | MINIMAL DETECTED CONCENTRATION (MDC) [16]: 1.26 nmol/assay | MINIMAL DETECTED CONCENTRATION (MDC) [17]: 0.32 nmol/assay | MINIMAL DETECTED CONCENTRATION (MDC) [20]: 0.079 nmol/assay | MINIMAL DETECTED CONCENTRATION (MDC) [21]: 0.57 nmol/assay | MINIMAL DETECTED CONCENTRATION (MDC) ([22]; AMES, literature values, pos/neg where MDC could not be calculated): pos | AMES (result) ([22]; Ames test, Table 3): pos
